The source of these data is ChEMBL document CHEMBL1139249, “N,N-Dichloroaminosulfonic acids as novel topical antimicrobial agents” (Bioorg Med Chem Lett, 2009).

Broadly, the MBC is the lowest tested concentration that kills the bacteria rather than only halting them. Read a low MBC as more potent killing. Usually MFC stands for the smallest concentration meeting the test's criterion for killing the fungus. Low values mean more potent killing, high ones less potent killing. As usually defined, the half-life is the time needed for the level to fall by half in the phase considered. A low value points to fast loss.

For data set [1], the system named is Staphylococcus aureus. Briefly: Antibacterial activity against Staphylococcus aureus ATCC 29213 after 16 to 20 hrs by CLSI standard method. The format is functional.
Data set [2] relates to Escherichia coli. Description: Antibacterial activity against Escherichia coli ATCC 25922 after 16 to 20 hrs by CLSI standard method. Type of data set: functional.
The test system of data set [3] is Candida albicans. Description: Antifungal activity against Candida albicans ATCC 10231 after 16 to 20 hrs by CLSI standard method. Type of data set: functional.
Data set [4] is described as follows: Cytotoxicity against mouse L929 cells. The format is cell-based. The note with it: read-out: CT50 (the source's name).
Data set [5] in a line: Aqueous solubility at pH 4. Type of data set: physicochemical. The note with it: aqueous solution.
A short description of data set [6]: Therapeutic index, ratio of CT50 for mouse L929 cells to MBC for Staphylococcus aureus. The format is cell-based. The conditions noted are these: read-out: TI.
Data set [7] can be described thus: Therapeutic index, ratio of CT50 for mouse L929 cells to MBC for Escherichia coli. The format is cell-based. The conditions noted are these: read-out: TI.
A short description of data set [8]: Therapeutic index, ratio of CT50 for mouse L929 cells to MFC for Candida albicans. The format is cell-based. The note with it: read-out: TI.
Data set [9] deals with Staphylococcus aureus. Briefly: Antibacterial activity against Staphylococcus aureus MCC 91731 after 16 to 20 hrs by CLSI standard method. Type of data set: functional.
Data set [10] deals with Escherichia coli. Description: Antibacterial activity against Escherichia coli MCC 80392 after 16 to 20 hrs by CLSI standard method. The format is functional.
Data set [11] relates to Candida albicans. Briefly: Antifungal activity against Candida albicans MCC 50319 after 16 to 20 hrs by CLSI standard method. The format is functional.

Values after ≈ are worked out from the molar mass of the structure shown.

For `CC(C)(CC(=O)OCCS(=O)(=O)O)N(Cl)Cl`, the MBC in [1] and in data set [2] was 2 µg/mL (≈ 6.8 µM) in each case. The minimal fungicidal concentration (MFC) in data set [3] was 64 µg/mL (≈ 218 µM). Also, the CC50 in data set [4] stood at 270 µg/mL (≈ 918 µM). The compound further yielded a half-life in data set [5] greater than 95 days. Further, the selectivity ratio in data set [6] was determined as 8; in data set [7], 8; in data set [8] it was 2.
With `CC(C)(CS(=O)(=O)[O-])N(Cl)Cl.[Na+]`, the MBC in [9] amounted to 1 µg/mL; in [10] it was 4 µg/mL. In data set [11], this compound showed an MFC of 32 µg/mL. Moreover, in [4], the CC50 was determined as 1200 µg/mL. This compound also displayed a half-life in data set [5] greater than 200 days. For the same compound, the selectivity ratio in data set [6] amounted to 8; in [7], 8; in [8], 2.
Regarding `CC(C)(CS(=O)(=O)O)C(=O)OCC(C)(C)N(Cl)Cl`, the MBC stood at 8 µg/mL (≈ 24.8 µM) in data set [1] and 4 µg/mL (≈ 12.4 µM) in [2]. Moreover, the MFC in [3] was 16 µg/mL (≈ 49.7 µM). In addition, the CC50 in [4] was determined as 840 µg/mL (≈ 2610 µM). In data set [5], the half-life is 80 days. Also, the selectivity ratio was determined as 8 in data set [6], 8 in [7] and 2 in data set [8].
Turning to `CC(C)(CCS(=O)(=O)O)N(Cl)Cl`, the MBC in data set [1] and in data set [2] was 4 µg/mL (≈ 16.9 µM) throughout. In data set [3], this compound came in with an MFC of 16 µg/mL (≈ 67.8 µM). Further, in [4], the CC50 was 1900 µg/mL (≈ 8050 µM). Moreover, in data set [5], the half-life was 174 days. Also, the selectivity ratio was determined as 8 in data set [6], 8 in [7] and 2 in data set [8].
Turning to `CC(C)(CCCS(=O)(=O)O)N(Cl)Cl`, the MBC in data set [9] and in [10] was 8 µg/mL (≈ 32 µM) each time. This compound also gave an MFC in [11] greater than 128 µg/mL. For the same compound, the CC50 in data set [4] was found to be 640 µg/mL (≈ 2560 µM). Further, the half-life in data set [5] was 16 days. Also, the selectivity ratio is 8 in data set [6], 8 in data set [7] and 2 in [8].
For `CC(C)(CP(=O)(O)O)N(Cl)Cl`, the MBC turned out to be 16 µg/mL (≈ 72.1 µM) in [1] and 8 µg/mL (≈ 36 µM) in data set [2]. In addition, the MFC in data set [3] was determined as 16 µg/mL (≈ 72.1 µM). The CC50 in [4] was 130 µg/mL (≈ 586 µM). In addition, the half-life in [5] is 23 days. The selectivity ratio in data set [6] is 8; in data set [7], 8; in [8], 2.
For `CC(=O)NS(=O)(=O)CC(C)(C)N(Cl)Cl`, the MBC in data set [1] came out at 1 µg/mL (≈ 3.8 µM); in data set [2] it was 2 µg/mL (≈ 7.6 µM). This compound gave an MFC in data set [3] of 64 µg/mL (≈ 243 µM). The half-life in data set [5] is 44 days. In addition, the selectivity ratio in [6] was 8; in data set [7], 8; in [8], 2.
As for `CC(C)(COC(=O)CCS(=O)(=O)O)N(Cl)Cl`, the results for the minimal bactericidal concentration (MBC) in [9] and in [2] were 1 µg/mL (≈ 3.4 µM) and 2 µg/mL (≈ 6.8 µM), respectively. Moreover, the MFC in data set [11] came to 4 µg/mL (≈ 13.6 µM). Also, the CC50 in data set [4] was 130 µg/mL (≈ 442 µM). The compound further had a half-life in data set [5] of 64 days. For the same compound, the results for the selectivity ratio in [6], in data set [7] and in data set [8] were 8, 8 and 2, respectively.
As to `CCOP(=O)(O)CC(C)(C)N(Cl)Cl`, the MBC in [9] stood at 2 µg/mL (≈ 8 µM). In addition, the MFC in data set [11] was 32 µg/mL (≈ 128 µM). For the same compound, the CC50 in [4] was found to be 80 µg/mL (≈ 320 µM). This compound showed a half-life in [5] greater than 18 days. Further, the selectivity ratio in data set [6] was 8; in [7] it was 8; in [8], 2.
On to `CC(C)(CS(=O)(=O)CCS(=O)(=O)O)N(Cl)Cl`, for which the MBC in data set [1] stood at 8 µg/mL (≈ 25.5 µM); in data set [2], 4 µg/mL (≈ 12.7 µM). The compound further yielded an MFC in [3] of 64 µg/mL (≈ 204 µM). Further, the CC50 in data set [4] came out at 1820 µg/mL (≈ 5790 µM). This compound also showed a half-life in [5] greater than 95 days. Besides, the selectivity ratio in data set [6] was found to be 8; in data set [7], 8; in [8] it was 2.
